# Experimental data reported in patent publication US7777041B2, “2-acylamino-4-phenylthiazole derivatives, preparation thereof and therapeutic application thereof” (sanofi-aventis, priority 2003, dated 2010).
# Read-outs that look alike come from different tables or passages of the source.
# What was measured:
# [1] = molecular target: T1, human CCR2b receptor (Homo sapiens, UniProt P41597); experiment: Inhibitory activity on cells expressing the human CCR2b receptor; format: cell-based
# T1 sequence (P41597 1-360 isoform P41597-2): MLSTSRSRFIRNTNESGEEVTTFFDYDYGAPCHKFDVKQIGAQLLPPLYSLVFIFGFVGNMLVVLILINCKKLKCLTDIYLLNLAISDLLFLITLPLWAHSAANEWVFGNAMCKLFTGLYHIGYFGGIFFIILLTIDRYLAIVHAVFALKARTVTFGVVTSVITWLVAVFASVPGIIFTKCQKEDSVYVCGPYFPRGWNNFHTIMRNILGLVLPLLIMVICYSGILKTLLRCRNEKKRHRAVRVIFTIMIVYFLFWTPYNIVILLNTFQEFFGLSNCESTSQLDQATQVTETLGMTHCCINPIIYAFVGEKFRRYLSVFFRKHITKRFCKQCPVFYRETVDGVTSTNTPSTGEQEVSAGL
# Method: The inhibitory activity of the compounds according to the invention on cells expressing the human CCR2b receptor was measured.
# [2] = system: human THP-1 monocytes; experiment: Inhibition of chemotaxis on human THP-1 monocytes (adapted from Albini et al.); format: cell-based; settings: hMCP-1
# Method: The inhibition of chemotaxis was also measured on human THP-1 monocytes (sold by DSMZ-Germany) using a technique adapted from that described by A. Albini et al., Cancer Res., 1987, 47, 3239-3245. Under these conditions, hMCP-1 has an IC50 value of 6 nM.
# The inhibition of chemotaxis by the compounds according to the invention is a sign of their antagonist activity on the chemokine receptors and in particular CCR2b.
# [3] = system: HIV-1 Bal virus; experiment: Inhibitory activity on PBMCs infected with HIV-1 Bal virus (reverse transcriptase content in supernatant); format: cell-based; settings: 5 days exposure, read-out: IC50 of inhibition of HIV-1 Bal replication in PBMCs
# Method: The inhibitory activity of the compounds according to the invention on PBMCs (peripheral blood mononuclear cells) infected with the HIV-1 Bal virus was also measured, according to a technique adapted from that described by V. Dolle et al., J. Med. Chem., 2000, 43, 3949, 3962. According to this technique, the PMBCs are infected with HIV-1 Bal and the test compounds are then added to the culture medium for 5 days. At the end of this exposure, the content of reverse transcriptase, which is correlated with the level of viral replication in the cells, is measured in the supernatant.
# Under these conditions, AZT, a reference molecule which inhibits viral replication, has an IC50 value of less than 0.1 μM.
# [4] = read-out: IC50 of inhibitory activity on cells expressing the human CCR2b receptor
Molecule,melting point,"IC50 [1, 4]",also measured
"CCCCc1ccc(OC)c(-c2csc(NC(=O)c3ccc(CCCNC4CCOCC4)cc3)n2)c1 [compound 182, N-[4-(5-Butyl-2-methoxyphenyl)-1,3-thiazol-2-yl]-4-[3-(tetrahydro-2H-pyran-4-ylamino)propyl]benzamide]",150 °C,,
CCCCc1ccc(OC)c(-c2csc(NC(=O)c3ccc(C(=O)N4CCC(NC5CCOCC5)CC4)cc3)n2)c1.Cl.Cl [68],181 to 189 °C,,
CCOc1ccc(C2CCCCC2)cc1-c1csc(NC(=O)c2ccc(C(=O)N3CCC(=O)CC3)cc2)n1 [compound 244],236 °C,88 nM,
CCOc1ccc(OCC)c(-c2csc(NC(=O)c3ccc(OCCN(CC)CC)cc3)n2)c1 [compound 12],,81 nM,
CCCc1ccc(OC)c(-c2csc(NC(=O)c3ccc(C(=O)N4CCC(N5CC[C@@H](N(C)C)C5)CC4)cc3)n2)c1 [compound 203],,93 nM,
"hMCP-1: ""hMCP-1 (human monocyte chemotactic protein), which belongs to the group of CC chemokines and whose actions are mediated by the CCR2b receptor""",,,"IC50 [2]: 6 nM; IC50 ([1]; natural agonist, read-out: concentration of natural agonist hMCP-1 that inhibits 50% (IC50) of the activity of the CCR2b receptor): 0.57 nM"
Cc1cn([C@H]2C[C@H](N=[N+]=[N-])[C@@H](CO)O2)c(=O)[nH]c1=O [AZT],,,IC50 [3]: < 100 nM
